Experimental data taken from patent US9422283B2, “Salts and polymorphs of a substituted imidazopyridinyl-aminopyridine compound” (ArQule, Inc., priority 2014, dated 2016).
In brackets after ≈: the same amount, converted by molar mass. Entries after “also recorded” stand apart in the source; their conditions may differ. Where a name gives a salt, the structure may show the parent alone. Read-outs that look alike come from different tables or passages of the source.

Columns and labels:
Type in all cases: physicochemical
[1] = Aqueous solubility studies of bis-mesylate forms (slurry in deionised water, HPLC, XRPD); details: about 24 hours; for polymorphic form after slurrying in deionised water (XRPD): ambient temperature
Method: Purity and concentration analyses were carried out using the following method:
• Pan Number 186003045 Column Temperature: 25° C. Autosampler Temperature: 5° C. Detection: 226 nm Mobile Phase A: 95:5:0.1% Water:Methanol:TFA Mobile Phase B: 95:5:0.1% Methanol:Water:TFA Gradient: See table below for conditions Flow Rate: 1.0 mL/minute Injection Volume: 10 μl Analysis Time: 36 minutes Re-equilibration Time: 4 minutes Data Collection time: 36 minutes Needle Wash: 100% Methanol
Slurries of Form A, Form B, Form C, Form D, Form E and Form I were created in deionised water and shaken for about 24 hours at ambient temperature (about 22° C.). The resulting solutions were then analyzed by HPLC and the aqueous solubility was determined. The remaining solids were analyzed by XRPD to determine if any form changes had occurred during slurrying.

[2] = Dynamic Vapour Sorption (DVS)
Method: Approximately 10 mg of sample was placed into a mesh vapour sorption balance pan and loaded into a DVS-1 dynamic vapour sorption balance by Surface Measurement Systems. The sample was subjected to a ramping profile of 0-90%, 90-0% relative humidity (RH) at 10% increments for anhydrous samples and 30-90%, 90-0%, 0-90%, 90-0% for hydrated samples, maintaining the sample at each step until a stable weight had been achieved (99.5% step completion). The weight changes during the sorption/desorption cycles were plotted, allowing the hygroscopic nature of the sample to be determined.

[3] = Stability testing of bis-mesylate forms for 1 week (XRPD, HPLC purity)
Method: Form A, Form B, Form C, Form D, Form E and Form I were exposed to environments of 40° C./75% RH, ambient light (about 22° C.) and elevated temperature (80° C.) for 1 week to determine the stability. The resulting solids were analyzed by XRPD to establish if any form changes had occurred and by HPLC to determine purity.

[4] = Solvent solubility screen by solvent addition technique; details: for observation in solubility screen: 40° C.; for solubility: 40 °C, thermodynamic from solid, amorphous input, read-out: Solubility (mg/mL) at 40° C.
Method: The amorphous form of Compound A bis-mesylate salt was used as the input material for the solubility screen. Solubility values were estimated by a solvent addition technique in order to provide approximate values for generating slurries during later experiments. Approximately 15 mg of amorphous material was weighed out into 24 vials. Each solvent was added to the appropriate vial in 10 aliquots of 10 μl, 5 aliquots of 20 μl, 3 aliquots of 100 μl and 1 aliquot of 500 μl or until the material dissolved. In between additions, the sample was heated to 40° C. To vials which already contained 1000 μl of solvent but still had observable solid material, a further aliquot of 1000 μl of solvent was added. If 2000 μl of solvent was added without dissolution of the solid, solubility was calculated to be below this point.

## Nc1ncccc1-c1nc2ccc(-c3ccccc3)nc2n1-c1ccc(C2(N)CCC2)cc1 [Form C, 3-(3-(4-(1-aminocyclobutyl)phenyl)-5-phenyl-3H-imidazo[4,5-b]pyridin-2-yl)pyridin-2-amine]
[1]
  polymorphic form after slurrying in deionised water (XRPD): converted to Form E
[2]
  DVS (summary Table 21): Non-hygroscopic
  hygroscopicity (DVS): non-hygroscopic
  polymorphic form after DVS analysis (XRPD): consistent with Form C; also recorded: Form C post
[2]; up to 90% RH
  DVS total water uptake: about 0.54%
[3]; 40° C./75% RH
  HPLC purity after stability test: about 99.9%
  polymorphic form after stability test (XRPD): No change
[3]; 80° C.
  HPLC purity after stability test: about 99.9%
  polymorphic form after stability test (XRPD): No change
[3]; ambient light (about 22° C.)
  polymorphic form after stability test (XRPD): No change
[3]; ambient temperature
  HPLC purity after stability test: about 99.9%

## Nc1ncccc1-c1nc2ccc(-c3ccccc3)nc2n1-c1ccc(C2(N)CCC2)cc1 [Form E, 3-(3-(4-(1-aminocyclobutyl)phenyl)-5-phenyl-3H-imidazo[4,5-b]pyridin-2-yl)pyridin-2-amine]
[1]; 22 °C, water, thermodynamic from solid, deionised water, ambient temperature (about 22° C.), read-out: aqueous solubility (HPLC concentration analysis)
  solubility at 24 h: ~347000 µg/mL (≈ 802 mM)
[1]
  polymorphic form after slurrying in deionised water (XRPD): remained unchanged; also recorded: Form E
[2]
  DVS (summary Table 21): Two hydration
  DVS desorption behaviour / hysteresis: dehydration occurred below 10% RH
  hygroscopicity (DVS): non-hygroscopic
  polymorphic form after DVS analysis (XRPD): RH Form E post
[2]; second sorption cycle, below 20% RH
  DVS water uptake: about 2.78%
[2]; second sorption cycle, between 20% and 40% RH
  DVS further water uptake: 5.5%
[3]; 40° C./75% RH
  HPLC purity after stability test: about 99.8%
  polymorphic form after stability test (XRPD): remained unchanged
[3]; 80° C.
  HPLC purity after stability test: about 99.8%
  polymorphic form after stability test (XRPD): some differences were observed
[3]; ambient light (about 22° C.)
  polymorphic form after stability test (XRPD): remained unchanged
[3]; ambient temperature
  HPLC purity after stability test: about 99.7%

## Nc1ncccc1-c1nc2ccc(-c3ccccc3)nc2n1-c1ccc(C2(N)CCC2)cc1 [Form I, 3-(3-(4-(1-aminocyclobutyl)phenyl)-5-phenyl-3H-imidazo[4,5-b]pyridin-2-yl)pyridin-2-amine]
[1]
  polymorphic form after slurrying in deionised water (XRPD): converted to Form E
[2]
  DVS (summary Table 21): Hydration occurs
  DVS desorption behaviour / hysteresis: gradual loss of water/dehydration below 50% RH
  polymorphic form after DVS analysis (XRPD): Form I post
[2]; sorption cycle, between 40% and 50% RH
  DVS water uptake: about 10%
[3]; 40° C./75% RH
  HPLC purity after stability test: about 99.8%
  polymorphic form after stability test (XRPD): conversion to Form J
[3]; 80° C.
  HPLC purity after stability test: about 99.9%
  polymorphic form after stability test (XRPD): remained unchanged
[3]; ambient light (about 22° C.)
  polymorphic form after stability test (XRPD): remained unchanged
[3]; ambient temperature
  HPLC purity after stability test: about 99.6%

## Nc1ncccc1-c1nc2ccc(-c3ccccc3)nc2n1-c1ccc(C2(N)CCC2)cc1 [Form D, 3-(3-(4-(1-aminocyclobutyl)phenyl)-5-phenyl-3H-imidazo[4,5-b]pyridin-2-yl)pyridin-2-amine]
[1]
  polymorphic form after slurrying in deionised water (XRPD): converted to Form E
[2]
  DVS (summary Table 21): Hydration occurs
  DVS desorption behaviour / hysteresis: gradual loss of water and hence dehydration was observed as the relative humidity was decreased below 40% RH
[2]; second sorption cycle, between 30% and 50% RH, after dehydration at 0% RH
  DVS water uptake: about 12%
[3]; 40° C./75% RH
  HPLC purity after stability test: about 99.9%
  polymorphic form after stability test (XRPD): converted to Form J
[3]; 80° C.
  HPLC purity after stability test: about 99.9%
  polymorphic form after stability test (XRPD): Form I
[3]; ambient light (about 22° C.)
  polymorphic form after stability test (XRPD): remained unchanged
[3]; ambient temperature
  HPLC purity after stability test: about 99.9%

## Nc1ncccc1-c1nc2ccc(-c3ccccc3)nc2n1-c1ccc(C2(N)CCC2)cc1 [Compound A bis-mesylate salt, 3-(3-(4-(1-aminocyclobutyl)phenyl)-5-phenyl-3H-imidazo[4,5-b]pyridin-2-yl)pyridin-2-amine]
[4]; 1,4-Dioxane
  observation in solubility screen: Colourless solution
[4]; 2-Methyl THF
  observation in solubility screen: Colourless solution
[4]; 2-Propanol
  observation in solubility screen: Good solubility
[4]; 2-Propanol:water (50:50)
  observation in solubility screen: Good solubility
[4]; aqueous with cosolvent or surfactant or cyclodextrin, 2-Propanol:water (50:50)
  solubility: ~400 mg/mL
[4]; organic solvent or mixture, 1,4-Dioxane
  solubility: < 8 mg/mL
[4]; organic solvent or mixture, 1-Butanol
  solubility: < 8 mg/mL
[4]; organic solvent or mixture, 2-Ethoxyethanol
  solubility: < 8 mg/mL
[4]; organic solvent or mixture, 2-Methyl THF
  solubility: < 8 mg/mL
[4]; organic solvent or mixture, 2-Propanol
  solubility: ~25 mg/mL
[4]; organic solvent or mixture, Acetone:water (90:10)
  solubility: ~16 mg/mL
[4]; organic solvent or mixture, Acetone
  solubility: < 8 mg/mL
[4]; organic solvent or mixture, Acetonitrile
  solubility: < 8 mg/mL
[4]; organic solvent or mixture, Cyclohexane
  solubility: < 8 mg/mL
[4]; organic solvent or mixture, Dichloromethane
  solubility: < 8 mg/mL
[4]; organic solvent or mixture, Diisopropyl ether
  solubility: < 8 mg/mL
[4]; organic solvent or mixture, Dimethylsulfoxide
  solubility: ~126 mg/mL
[4]; organic solvent or mixture, Ethanol
  solubility: < 8 mg/mL
[4]; organic solvent or mixture, Ethyl acetate
  solubility: < 8 mg/mL
[4]; organic solvent or mixture, Heptane
  solubility: < 8 mg/mL
[4]; organic solvent or mixture, Isopropyl acetate
  solubility: < 8 mg/mL
[4]; organic solvent or mixture, Methanol
  solubility: ~40 mg/mL
[4]; organic solvent or mixture, Methylethyl ketone
  solubility: < 8 mg/mL
[4]; organic solvent or mixture, Methylisobutyl ketone
  solubility: < 8 mg/mL
[4]; organic solvent or mixture, Tetrahydrofuran
  solubility: < 8 mg/mL
[4]; organic solvent or mixture, Toluene
  solubility: < 8 mg/mL
[4]; organic solvent or mixture, tert-Butylmethyl ether
  solubility: < 8 mg/mL
[4]; Water
  solubility: ~769 mg/mL
  observation in solubility screen: Good solubility
[4]; Acetone:water (90:10)
  observation in solubility screen: Good solubility
[4]; Cyclohexane
  observation in solubility screen: Colourless solution
[4]; Dichloromethane
  observation in solubility screen: Colourless solution
[4]; Diisopropyl ether
  observation in solubility screen: Colourless solution
[4]; Dimethylsulfoxide
  observation in solubility screen: Good solubility
[4]; Heptane
  observation in solubility screen: Colourless solution
[4]; Isopropyl acetate
  observation in solubility screen: Colourless solution
[4]; Methanol
  observation in solubility screen: Good solubility
[4]; Methylethyl ketone
  observation in solubility screen: Colourless solution
[4]; Methylisobutyl ketone
  observation in solubility screen: Colourless solution
[4]; Toluene
  observation in solubility screen: Colourless solution
[4]; tert-Butylmethyl ether
  observation in solubility screen: Colourless solution
